# Patent publication US20100247551A1, “Use of Lipocalin 2 in the Regulation of Insulin Sensitivity” (priority 2006, published 2010)
# Key:
# [1] = tested on: Lcn2 expression in 3T3-L1 adipocytes; assay: Lcn2 mRNA expression in mature 3T3-L1 adipocytes (Q-PCR); assay type: cell-based, mouse; conditions: Dex 1 μM or TNF 4 ng/μL (FIG. 1)
# Procedure: Mature 3T3-L1 adipocytes were treated with Dex (1 μM) or TNF (4 ng/μL) in the presence or absence of rosiglitazone (Rosi; 1 μM), and Lcn2 mRNA levels were measured by Q-PCR. Data presented as mean±SD, *p<0.05, ***p=0.005 relative to no Rosi.
# H4IIe hepatocytes = assay: Insulin resistance in H4IIe hepatocytes (glucose production, glucose-6-phosphatase mRNA expression); assay type: cell-based; conditions: liganded Lcn2 10 nM, with or without insulin 100 nM (FIG. 6)
# Procedure: FIG. 6A: Left, Glucose production induced by liganded Lcn2 (10 nM) or Dex (250 nM) in the presence or absence of insulin (100 nM). Right, effect of liganded Lcn2 (10 nM) or Dex (250 nM) on glucose-6-phosphatase mRNA expression in the presence or absence of insulin (100 nM). FIG. 6B: Dose response of liganded Lcn2 on glucose-6-phosphatase expression. FIG. 6C: Effect of apo-Lcn2 on glucose-6-phosphatase expression. For all panels, mean±SD, p<0.05, **p<0.01, n=3.
molecule,measurement,setting,value
TNF-α,Lcn2 expression,[1],dramatically induced
"recombinant Lcn2: exogenous recombinant lipocalin 2 protein (protein, UniProt P80188 21-198, looked up) Neutrophil …: QDSTSDLIPAPPLSKVPLQQNFQDNQFQGKWYVVGLAGNAILREDKDPQKMYATIYELKEDKSYNVTSVLFRKKKCDYWIRTFVPGCQPGEFTLGNIKSYPGLTSYLVRVVSTNYNQHAMVFFKKVSQNREYFKITLYGRTKELTSELKENFIRFSKSLGLPENHIVFPVPIDQCIDG","insulin resistance (glucose production, glucose-6-phosphatase expression)",H4IIe hepatocytes,induces insulin resistance
